Laboratory results published in patent US6528494B2 (priority 1996, dated 2003).
Where a name gives a salt, the structure may show the parent alone.

How the values were obtained:
Assay type in all cases: cell-based
[1] = biological target: adenosine 2a receptor (Homo sapiens, UniProt P29274); assay: Agonist activity against adenosine 2a receptor (CHO cells, cAMP/SPAP reporter); conditions: CHO cells transfected with human receptor, basal cAMP via SPAP, mean of all the versions tested
Method: (§1) (1) Agonist activity against adenosine 2a, adenosine 1 and adenosine 3 receptor subtypes.
(§2) The effect of test compounds was determined by their effects on basal levels of cAMP (A2a) or on forskolin-enhanced cAMP (A1 and A3) as reflected by changes in levels of SPAP.

[2] = biological target: T1, adenosine 1 receptor (Homo sapiens, UniProt P30542); assay: Agonist activity against adenosine 1 receptor (CHO cells, forskolin-enhanced cAMP/SPAP reporter); conditions: CHO cells transfected with human receptor, forskolin-enhanced cAMP via SPAP, mean of all the versions tested
T1 sequence (P30542 1-326): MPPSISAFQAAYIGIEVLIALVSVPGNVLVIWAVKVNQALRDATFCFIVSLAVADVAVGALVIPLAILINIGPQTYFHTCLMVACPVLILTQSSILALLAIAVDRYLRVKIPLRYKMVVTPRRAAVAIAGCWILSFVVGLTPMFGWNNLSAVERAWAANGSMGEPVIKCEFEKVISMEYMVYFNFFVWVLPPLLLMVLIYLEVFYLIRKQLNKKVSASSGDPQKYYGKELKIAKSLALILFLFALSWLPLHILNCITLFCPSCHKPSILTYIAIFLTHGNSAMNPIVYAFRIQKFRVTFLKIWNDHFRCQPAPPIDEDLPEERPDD
Method: as §1, §2

[3] = biological target: T2, adenosine 3 receptor (Homo sapiens, UniProt P0DMS8); assay: Agonist activity against adenosine 3 receptor (CHO cells, forskolin-enhanced cAMP/SPAP reporter); conditions: CHO cells transfected with human receptor, forskolin-enhanced cAMP via SPAP, mean of all the versions tested
T2 sequence (P0DMS8 1-318): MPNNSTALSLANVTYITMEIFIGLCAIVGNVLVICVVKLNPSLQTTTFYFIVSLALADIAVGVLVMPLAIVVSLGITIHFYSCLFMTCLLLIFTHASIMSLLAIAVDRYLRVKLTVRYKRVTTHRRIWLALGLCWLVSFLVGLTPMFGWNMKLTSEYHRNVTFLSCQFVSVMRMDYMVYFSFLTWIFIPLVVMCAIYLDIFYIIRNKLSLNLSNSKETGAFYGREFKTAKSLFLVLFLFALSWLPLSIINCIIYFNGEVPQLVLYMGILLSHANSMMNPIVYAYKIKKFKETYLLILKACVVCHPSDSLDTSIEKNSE
Method: as §1, §2

Sequence of adenosine 2a receptor (P29274 whole entry): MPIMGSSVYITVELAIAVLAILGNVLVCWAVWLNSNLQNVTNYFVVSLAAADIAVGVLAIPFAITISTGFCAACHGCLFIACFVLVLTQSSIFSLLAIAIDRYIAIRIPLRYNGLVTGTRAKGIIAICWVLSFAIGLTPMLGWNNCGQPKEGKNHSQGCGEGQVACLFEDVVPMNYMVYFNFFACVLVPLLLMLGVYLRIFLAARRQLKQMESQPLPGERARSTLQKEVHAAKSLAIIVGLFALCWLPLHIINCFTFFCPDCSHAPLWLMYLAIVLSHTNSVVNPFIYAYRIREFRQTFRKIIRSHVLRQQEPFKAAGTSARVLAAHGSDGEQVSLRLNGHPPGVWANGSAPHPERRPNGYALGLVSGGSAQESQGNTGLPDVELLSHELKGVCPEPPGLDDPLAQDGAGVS

| A2a EC50 as a ratio of that of NECA [1] | A1 EC50 as a ratio of that of NECA [2] | A3 EC50 as a ratio of that of NECA [3] | A2a EC50 as a ratio of that of NECA ([1]; Dihydrochloride) | A1 EC50 as a ratio of that of NECA ([2]; Dihydrochloride) | A3 EC50 as a ratio of that of NECA ([3]; Dihydrochloride) | SMILES |
| --- | --- | --- | --- | --- | --- | --- |
| 1.40 | 121.50 | >174 |  |  |  | CCn1nnc(C2OC(n3cnc4c(NCCc5ccccc5)nc(NC5CCN(Cc6ccccc6)C5)nc43)C(O)C2O)n1.O=CO.O=CO [Example 75, (2R,3R,4S,5R)-2-[2-(1-Benzyl-pyrrolidin-3-ylamino)-6-phenethylamino-purin-9-yl]-5-(2-ethyl-2H-tetrazol-5-yl)-tetrahydro-furan-3,4-diol bis(Formate)] |
| 5.71 | 292.70 | >127 |  |  |  | CCn1nnc(C2OC(n3cnc4c(NCc5cccc(I)c5)nc(NC5CCC(N)CC5)nc43)C(O)C2O)n1.O=CO.O=CO [Example 100, (2R,3R,4S,5R)-2-[2-(trans-4-Amino-cyclohexylamino)-6-(3-iodo-benzylamino)-purin-9-yl]-5-(2-ethyl-2H-tetrazol-5-yl)-tetrahydro-furan-3,4-diol Diformate] |
|  |  |  | 0.69 | 237.9 | >442 | CCn1nnc(C2OC(n3cnc4c(NCC(c5ccccc5)c5ccccc5)nc(NC5CCNC5)nc43)C(O)C2O)n1 [Example 21, (2R,3R,4S,5R)-2-[6-(2,2-Diphenyl-ethylamino)-2-(pyrrolidin-3R-ylamino)-purin-9-yl]-5-(2-ethyl-2H-tetrazol-5-yl)-tetrahydro-furan-3,4-diol Dihydrochloride] |
| 1.75 | >7461.00 | >270 |  |  |  | CCC(CC)Nc1nc(NCCN2CCOCC2)nc2c1ncn2C1OC(c2nnn(C)n2)C(O)C1O.O=CO.O=CO [Example 91, (2R,3R,4S,5R)-2-[6-(1-Ethyl-propylamino)-2-(2-morpholin-4-yl-ethylamino)-purin-9-yl]-5-(2-methyl-2H-tetrazol-5-yl)-tetrahydro-furan-3,4-diol Diformate] |
| 2.79 | 201.70 | >171 |  |  |  | CCn1nnc(C2OC(n3cnc4c(NCCc5ccccc5)nc(NC5CCNC5)nc43)C(O)C2O)n1 [Example 74, (2R,3S,4R,5R)-2-(2-Ethyl-2H-tetrazol-5-yl)-5-[6-phenethylamino-2-(pyrrolidin-3R-ylamino)-purin-9-yl]-tetrahydro-furan-3,4-diol bis(Formate)] |
| 1.51 | 39.00 | >195 |  |  |  | CCn1nnc(C2OC(n3cnc4c(NC5CCCC5)nc(NC5CCC(N)CC5)nc43)C(O)C2O)n1.O=CO.O=CO [Example 101, (2R,3R,4S,5R)-2-[2-(trans-4-Amino-cyclohexylamino)-6-cyclopentylamino-purin-9-yl]-5-(2-ethyl-2H-tetrazol-5-yl)-tetrahydro-furan-3,4-diol bis(Formate)] |
| 0.026 | 56.2 | >100 |  |  |  | Cn1cnc(CCNc2nc(NC(CO)Cc3ccccc3)c3ncn(C4OC(c5nnn(C)n5)C(O)C4O)c3n2)c1 [Example 32, (2R,3R,4S,5R)-2-{6-(1S-Hydroxymethyl-2-phenyl-ethylamino)-2-[2-(1-methyl-1H-imidazol-4-yl)-ethylamino]-purin-9-yl}-5-(2-methyl-2H-tetrazol-5-yl)-tetrahydro-furan-3,4-diol Formate] |
| 2.29 | 21.10 | >295 |  |  |  | CCn1nnc(C2OC(n3cnc4c(NC(CO)Cc5ccccc5)nc(NC5CCNC5)nc43)C(O)C2O)n1 [Example 62, (2R,3S,4R,5R)-2-(2-Ethyl-2H-tetrazol-5-yl)-5-[6-(1S-hydroxymethyl-2-phenyl-ethylamino)-2-(pyrrolidin-3R-ylamino)-purin-9-yl]-tetrahydro-furan-3,4-diol bis(Formate)] |
| 3.28 | 158.70 | >214 |  |  |  | CCn1nnc([C@H]2O[C@@H](n3cnc4c(NCCc5ccccc5)nc(NCCN5CCOCC5)nc43)[C@H](O)[C@@H]2O)n1 [Example 49, (2R,3S,4R,5R)-2-(2-Ethyl-2H-tetrazol-5-yl)-5-[2-(2-morpholin-4-yl-ethylamino)-6-phenethylamino-purin-9-yl]-tetrahydro-furan-3,4-diol] |
| 2.50 | 490.80 | >103 |  |  |  | CCn1nnc(C2OC(n3cnc4c(NCC(c5ccccc5)c5ccccc5)nc(NC5CCNC5)nc43)C(O)C2O)n1 [Example 84, (2R,3R,4S,5R)-2-[6-(2,2-Diphenyl-ethylamino)-2-(pyrrolidin-3S-ylamino)-purin-9-yl]-5-(2-ethyl-2H-tetrazol-5-yl)-tetrahydro-furan-3,4-diol bis(Trifluoroacetate)] |

| SMILES | A2a EC50 as a ratio of that of NECA [1] | A1 EC50 as a ratio of that of NECA [2] | A3 EC50 as a ratio of that of NECA [3] | A2a EC50 as a ratio of that of NECA ([1]; Dihydrochloride) | A1 EC50 as a ratio of that of NECA ([2]; Dihydrochloride) | A3 EC50 as a ratio of that of NECA ([3]; Dihydrochloride) |
| --- | --- | --- | --- | --- | --- | --- |
| CCn1nnc([C@H]2O[C@@H](n3cnc4c(NCC(c5ccccc5)c5ccccc5)nc(NCCN5CCOCC5)nc43)[C@H](O)[C@@H]2O)n1.O=C(O)C(F)(F)F.O=C(O)C(F)(F)F.O=C(O)C(F)(F)F [Example 44, (2R,3R,4S,5R)-2-[6-(2,2-Diphenyl-ethylamino)-2-(2-morpholin-4-yl-ethylamino)-purin-9-yl]-5-(2-ethyl-2H-tetrazol-5-yl)-tetrahydro-furan-3,4-diol tris(Trifluoroacetate)] | 3.25 | 44.11 | >546 |  |  |  |
| CC(=O)O.CCn1nnc([C@H]2O[C@@H](n3cnc4c(NCCC(C)(C)C)nc(NCCNc5ccccn5)nc43)[C@H](O)[C@@H]2O)n1 [Example 51, (2R,3R,4S,5R)-2-{6-(3,3-Dimethyl-butylamino)-2-[2-(pyridin-2-ylamino)-ethylamino]-purin-9-yl}-5-(2-ethyl-2H-tetrazol-5-yl)-tetrahydro-furan-3,4-diol Acetate] | 1.46 | 144.00 | >42 |  |  |  |
| CCn1nnc([C@H]2O[C@@H](n3cnc4c(NCCC(C)(C)C)nc(N[C@@H]5CCC[C@H]5O)nc43)[C@H](O)[C@@H]2O)n1.O=C(O)C(F)(F)F.O=C(O)C(F)(F)F [Example 60] | 4.24 | 69.10 | >385 |  |  |  |
| CC(C)n1nnc([C@H]2O[C@@H](n3cnc4c(NCc5ccccc5)nc(NCCc5cn(C)cn5)nc43)[C@H](O)[C@@H]2O)n1.O=CO [Example 58, (2R,3R,4S,5R)-2-{6-Benzylamino-2-[2-(1-methyl-1H-imidazol-4-yl)-ethylamino]-purin-9-yl}-5-(2-isopropyl-2H-tetrazol-5-yl)-tetrahydro-furan-3,4-diol Formate] | 6.07 | 1119.00 | >515 |  |  |  |
| CCC(CC)Nc1nc(NCCc2cn(C)cn2)nc2c1ncn2[C@@H]1O[C@H](c2nnn(C)n2)[C@@H](O)[C@H]1O.O=CO [Example 33, (2R,3R,4S,5R)-2-{6-(1-Ethyl-propylamino)-2-[2-(1-methyl-1H-imidazol-4-yl)-ethylamino]-purin-9-yl}-5-(2-methyl-2H-tetrazol-5-yl)-tetrahydro-furan-3,4-diol Formate] | 0.16 | >4045 | >172 |  |  |  |
| CCn1nnc([C@H]2O[C@@H](n3cnc4c(NCC(c5ccccc5)c5ccccc5)nc(NCCN5CCCC5)nc43)[C@H](O)[C@@H]2O)n1.O=C(O)C(F)(F)F.O=C(O)C(F)(F)F.O=C(O)C(F)(F)F [Example 43, (2R,3R,4S,5R)-2-[6-(2,2-Diphenyl-ethylamino)-2-(2-pyrrolidin-1-yl-ethylamino)-purin-9-yl]-5-(2-ethyl-2H-tetrazol-5-yl)-tetrahydro-furan-3,4-diol tris(Trifluoroacetate)] | 2.23 | 71.35 | >546 |  |  |  |
| CCn1nnc([C@H]2O[C@@H](n3cnc4c(N)nc(NCCc5cn(C)cn5)nc43)[C@H](O)[C@@H]2O)n1.O=CO [Example 54, (2R,3R,4S,5R)-2-{6-Amino-2-[2-(1-methyl-1H-imidazol-4-yl)-ethylamino]-purin-9-yl}-5-(2-ethyl-2H-tetrazol-5-yl)-tetrahydro-furan-3,4-diol Formate] | 1.16 | 267.60 | >175 |  |  |  |
